In US20240148743A1, “USES OF MELANOCORTIN-4 RECEPTOR AGONIST” (LG CHEM, LTD., priority 2021, published 2024):

Tested on: db/db mice
Assay: db/db mouse model experiment (leptin receptor-deficient genetic obesity model, 45 kcal % high-fat diet)
Format: in vivo
Procedure: To confirm anti-obesity efficacy, N-((3S,5S)-1-((3S,4R)-1-(tert-butyl)-4-(4-chlorophenyl)pyrrolidine-3-carbonyl)-5- (morpholine-4 -carbonyl)pyrrolidin-3-yl)-N-((1s ,4R)-4-methylcyclohexyl)isobutyramide hydrochloride (hereinafter referred to as “Test Compound”) obtained in the Preparation Example was administered repeatedly for 4 weeks while feeding 45 kcal % high-fat diet (diet with 45 kcal % fat) to db/db mice which is a genetic obesity mouse model in which a mutation in the leptin receptor associated with the MC4R pathway occurred. The weight gain inhibitory effect was confirmed by measuring the body weight during the administration period, and the body fat mass reduction effect was confirmed by measuring the total body fat mass after repeated administration for 4 weeks. […] The results are represented in FIG. 1.

[1] = body fat analysis after repeated administration for 4 weeks, compared to the negative control group
[2] = db/db mice on 45 kcal % high-fat diet, repeated administration for 4 weeks, compared to the negative control group

Q: For `CC(C)C(=O)N([C@H]1C[C@@H](C(=O)N2CCOCC2)N(C(=O)[C@@H]2CN(C(C)(C)C)C[C@H]2c2ccc(Cl)cc2)C1)[C@H]1CC[C@@H](C)CC1.Cl` [Test Compound, N-((3S,5S)-1-((3S,4R)-1-(tert-butyl)-4-(4-chlorophenyl)pyrrolidine-3-carbonyl)-5-(morpholine-4-carbonyl)pyrrolidin-3-yl)-N-((1s ,4R)-4-methylcyclohexyl)isobutyramide hydrochloride], which fat mass [1] is on record?
A: significantly decreased

Q: What about the fat-free mass [1] of the same molecule?
A: no difference

Q: What about the body weight [2] of the same molecule?
A: significantly reduced

Q: And the weight gain rate [2]?
A: significantly decreased

Q: And the weight loss effect (leptin receptor-deficient mouse model (db/db), FIG. 1)?
A: significant weight loss effect
